Consider one compound from patent publication US20060160893A1, “Method for enhancing the quality of berry fruit” (priority 2001, published 2006).

Test [1] deals with Botrytis gray mold of red raspberry. The test can be described thus: Example 6: field application, Botrytis gray mold of red raspberry, storage evaluation. It is filed as in vivo. The method, then:
(§1) All examples are conducted under field conditions using accepted grower practices. The mixtures of I and II are applied to field grown plants, not as a post harvest berry treatment.
(§2) The use of corrected means is standard practice in field evaluations of pesticides. Corrected means are calculated as follows: [formula]
(§3) In the following examples, Fungicide A=a mixture of cyprodinil (I) and fludioxonil (II) (mixing ratio 1.5:1) applied as a 62.5% by weight water dispersible granule (WG) formulation.
Fungicide A is applied to field grown red raspberry and shelf-life evaluations made.
Healthy berries are harvested from each treatment and placed into storage and evaluated for Botrytis control (see table below).

The subject of test [2] is Botrytis gray mold of strawberry. Description: Example 1: field application, Botrytis gray mold of strawberry, cool storage shelf-life evaluation. It is filed as in vivo. The note with it: for % Control: 7 day storage, relative to untreated check. The method, then: as §1, §2, §3
Performance of Fungicide a Against Botrytis Gray Mold of Strawberry. Fungicide A is applied in the field; berries are then harvested and placed into cool storage for shelf-life evaluations (no additional sprays were made after harvest).

Take `O=C1C2CC=CCC2C(=O)N1SC(Cl)(Cl)Cl` (stereo not drawn) [Captan, captan]: in test [1], the “% Botrytis Infect Berries (6 Day Storage Rating)” value stood at 88.2%. Moreover, in test [1] (relative to untreated check), the “% Botrytis Disease Control (6 Day Storage Rating)” value is on record as 7%. Besides, the “% Control” value is recorded as 28% in test [2] (inoculated) and 70% in test [2] (non-inoculated). Also, the “% Pest Incidence Fruit Rating 7 Day Storage Rating Inoculated” value in test [2] (strawberry variety 'Chandler', inoculated) is 51%. The “% Pest Incidence Fruit Rating 7 Day Storage Rating Non-inoculated” value in test [2] (strawberry variety 'Chandler', non-inoculated) worked out at 6%.
